These results are taken from patent US9649332B2, “Poly (β-hydroxy short-medium chain fatty acid)” (EARTHUS, INC., priority 2003, dated 2017).

The assay deals with Cell line HT-29 derived from colon tumor. In words: Growth inhibition against colon tumor cell line (MTT method). Conditions: 72 hours, control 0.337 ± 0.055. Type of assay: cell-based. The method, then: Cell line HT-29 derived from colon tumor was inoculated into McCoy's SA medium supplemented with 10% fetal calf serum comprising penicillin 50 U/ml, streptomycin 50 μg/ml and HEPES 10 mM on 96-well cell culture plate (7,500 cells/well). The cells were pre-incubated in an atmosphere of 95% air and 5% carbon dioxide at 37° C. for 24 hours. […] The plate was incubated further 72 hours. The cell number in the each well was determined by the MTT method based on the difference of the optical density.

As for `C[C@H](CC(=O)O)OC(=O)C[C@@H](C)O` [R-dimer, dimer of R(−)-β-hydroxybutyric acid], the “cell number by MTT method (optical density)” value by setting is: (0.1 mM) 0.288 ± 0.019; (0.5 mM) 0.251 ± 0.029; (1 mM) 0.248 ± 0.029; (2 mM) 0.237 ± 0.019.
In the same order, the values of `CCCC(=O)O` [butyric acid, reference compound] are 0.234 ± 0.012, 0.243 ± 0.009, 0.250 ± 0.010 and 0.200 ± 0.009.
For `C[C@H](O)CC(=O)O` [S-β-hydroxy-butyric acid, S(+)-β-hydroxybutyric acid], in that order: 0.257 ± 0.035, 0.255 ± 0.013, 0.281 ± 0.017 and 0.293 ± 0.022.
`C[C@@H](O)CC(=O)O` [R-β-hydroxy-butyric acid, R(−)-β-hydroxy-butyric acid]: the “cell number by MTT method (optical density)” value reads like this: (0.1 mM) 0.271 ± 0.028; (0.5 mM) 0.264 ± 0.019; (1 mM) 0.272 ± 0.015; (2 mM) 0.284 ± 0.023.
